Reference: the supplement of paper PMC8988213
Counter-ions that a name gives are not always drawn.

Tests used:
[1] = tested on: ID188 patient-derived PDAC 2D line (pre-FOLFIRINOX); assay: normalised area under dose-response curve (viability relative to DMSO, 7 doses up to 10 µM) (fraction (AUC)); higher = less sensitive (more viability retained); conditions: 72 h; top dose: 10 µM
How it was run: (§1)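 A robot plated 1,500–3,000 cells/well of patient-derived 2D PDAC cells, outgrown from organoids, into 96-well plates, followed by overnight incubation at 37°C, 5% CO2. The cells were exposed for 72 h to SelleckChem library compounds at seven 3-fold-diluted concentrations up to 10 µM, and CellTiter-Glo luminescence was read after 10 min. Area under the dose-response curve came from the GRmetrics R package, with viability normalised to control wells.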

[2] = tested on: ID211 patient-derived PDAC 2D line (post-FOLFIRINOX); assay: as above; conditions: 72 h; top dose: 10 µM
How it was run: as §1

| Structure (SMILES) | normalised area under dose-response curve [1] | normalised area under dose-response curve [2] |
| --- | --- | --- |
| CN(C)Cc1c(C(=O)NCCOc2ccc(C(=O)NO)cc2)oc2ccccc12 | 0.733 | 0.748 |
| CNC(=O)c1ccc(-c2cnc3ncc(Cc4ccc5ncccc5c4)n3n2)cc1F | 0.956 | 0.855 |
| COCCOc1ccc2c(c1)ncn2-c1ccc2cccc(N3CCC(N)CC3)c2n1 | 0.974 | 1.03 |
| COc1cc2ncnc(Oc3cccc(NC(=O)Nc4cc(C(C)(C)C(F)(F)F)on4)c3)c2cc1OC | 0.948 | 0.832 |
| N#Cc1c(O)c2c(-c3ccc(-c4ccccc4O)cc3)csc2[nH]c1=O | 0.977 | 0.782 |
| Nc1ncnc2n[nH]c(Nc3ccc(F)cc3)c12 | 0.947 | 0.864 |
| O=C(Oc1cc(S(=O)(=O)c2ccccc2)ccc1[N+](=O)[O-])c1ccc(Cl)cc1 | 0.959 | 0.869 |
| O=C1NCCCc2c1oc1ccc(O)cc21 | 0.904 | 0.878 |
| O=C(O)C(Cc1ccccc1[N+](=O)[O-])=NNc1nc(-c2ccc(Cl)c(Cl)c2)cs1 (mixture of isomers) [4EGI-1] | 0.549 | 0.889 |
| Cc1nnc(C(C)C)n1C1C[C@H]2CC[C@@H](C1)N2CC[C@H](NC(=O)C1CCC(F)(F)CC1)c1ccccc1 (stereo in doubt) [Maraviroc] | 1 | 0.865 |
| O=C(O)c1ccc(N2C(=O)/C(=C\c3ccc(-c4ccc([N+](=O)[O-])cc4)o3)C=C2c2ccccc2)cc1 [4E1RCat] | 0.946 | 0.895 |
| Cc1sc2c(c1C)C(c1ccc(Cl)cc1)=N[C@@H](CC(=O)OC(C)(C)C)c1nnc(C)n1-2 [(+)-JQ1] | 0.842 | 0.652 |
| COc1cc2c(cc1OCCCN1CCCC1)N=C(N)C21CCC1 [A-366] | 0.983 | 0.895 |
| COc1ccc(S(=O)(=O)Nc2cccnc2Nc2ccc(O)cc2)cc1 [ABT-751 (E7010)] | 0.794 | 0.644 |
| Cc1ccccc1C(C(=O)NC1CCCCC1)N(C(=O)Cn1ccnc1C)c1cccc(F)c1 (centres undefined) [AGI-5198] | 0.972 | 0.804 |
| O=C(Nc1cccc(C(F)(F)F)c1)Nc1cc(S(=O)(=O)NC2CC2)ccc1-c1ccsc1 [AGI-6780] | 0.906 | 0.842 |
| NC(=O)c1ncn([C@@H]2O[C@H](CO)[C@@H](O)[C@H]2O)c1N [AICAR (Acadesine)] | 0.934 | 0.887 |
| COCC1(CO)C(=O)C2CCN1CC2 (centres undefined) [APR-246 (PRIMA-1MET)] | 0.947 | 0.86 |
| O=C(NC1CCNCC1)c1n[nH]cc1NC(=O)c1c(Cl)cccc1Cl [AT7519 HCl] | 0.725 | 0.673 |
| CC(=O)N1CCC[C@H]1C(=O)N[C@@H](Cc1cnc[nH]1)C(=O)N[C@@H](CO)C(=O)N[C@@H](CS)C(=O)N[C@@H](CC(N)=O)C(N)=O [ATN-161 (Ac-PHSCN-NH2)] | 1 | 0.858 |
| COc1cc(N2CCN(C)CC2)ccc1Nc1nccc(-c2cn(C)c3cnccc23)n1 [AZ191] | 0.971 | 0.867 |
| Cc1ccc(NC(=O)c2cccc(C(C)(C)C#N)c2)cc1Nc1ccc2ncn(C)c(=O)c2c1 [AZ 628] | 0.898 | 0.634 |
| N[C@@H]1CCCN(c2c(/C=C3\SC(=O)NC3=O)cccc2-c2ccccc2)C1 [AZD1208] | 0.958 | 0.841 |
| Cc1cc(Nc2nc(N[C@@H](C)c3ncc(F)cn3)ncc2Cl)[nH]n1 [AZD1480] | 0.952 | 0.766 |

| Structure (SMILES) | normalised area under dose-response curve [1] | normalised area under dose-response curve [2] |
| --- | --- | --- |
| Cc1[nH]nc(C(F)(F)F)c1Cc1sc2c(c1C(=O)N1C[C@](C)(O)CO1)c(=O)n(C)c(=O)n2C(C)C [AZD3965] | 0.937 | 0.89 |
| COc1cc(CCc2cc(NC(=O)c3ccc(N4CC(C)NC(C)C4)cc3)n[nH]2)cc(OC)c1 (centres undefined) [AZD4547] | 0.998 | 0.829 |
| COc1nnc2ccc(N3CCC(c4ccc(OCCN5CCN(C)C(=O)[C@H]5C)cc4)CC3)nn12 [AZD5153] | 0.723 | 0.59 |
| Cc1cc([C@@H](C)Nc2ccccc2C(=O)O)c2nc(N3CCOCC3)cc(=O)n2c1 [AZD6482] | 0.862 | 0.835 |
| C[C@@H]1COCCN1c1cc(C2([S@](C)(=N)=O)CC2)nc(-c2cc[nH]c3nccc2-3)n1 [AZD6738] | 0.805 | 0.749 |
| NC(=O)Nc1cc(-c2cccc(F)c2)sc1C(=O)N[C@H]1CCCNC1 [AZD7762] | 0.558 | 0.507 |
| C=CCn1c(=O)c2cnc(Nc3ccc(N4CCN(C)CC4)cc3)nc2n1-c1cccc(C(C)(C)O)n1 [Adavosertib(MK-1775)] | 0.582 | 0.662 |
| CN(C)C/C=C/C(=O)Nc1cc2c(Nc3ccc(F)c(Cl)c3)ncnc2cc1O[C@H]1CCOC1 [Afatinib (BIBW2992) Dimaleate] | 0.855 | 0.58 |
| CCc1cc2c(cc1N1CCC(N3CCOCC3)CC1)C(C)(C)c1[nH]c3cc(C#N)ccc3c1C2=O [Alectinib hydrochloride] | 0.779 | 0.789 |
| COc1cc(Nc2ncc3c(n2)-c2ccc(Cl)cc2C(c2c(F)cccc2OC)=NC3)ccc1C(=O)O [Alisertib (MLN8237)] | 0.799 | 0.88 |
| O=c1[nH]cnc2[nH]ncc12 [Allopurinol Sodium] | 0.951 | 0.843 |
| Cn1c(=O)cc(N2CCC[C@@H](N)C2)n(Cc2ccccc2C#N)c1=O [Alogliptin] | 0.952 | 0.817 |
| Cc1nc(NC(=O)N2CCC[C@H]2C(N)=O)sc1-c1ccnc(C(C)(C)C(F)(F)F)c1 [Alpelisib (BYL719)] | 0.892 | 0.696 |
| CC(C)(C#N)c1cc(Cn2cncn2)cc(C(C)(C)C#N)c1 [Anastrozole] | 0.939 | 0.799 |
| COc1cc(OC)c2c(=O)[nH]c(-c3cc(C)c(OCCO)c(C)c3)nc2c1 [Apabetalone (RVX-208)] | 0.949 | 0.837 |
| Cc1c(CN2CCN(C(=O)[C@H](C)O)CC2)sc2c(N3CCOCC3)nc(-c3cnc(N)nc3)nc12 [Apitolisib (GDC-0980, RG7422)] | 0.606 | 0.54 |
| COc1cc(C(C)=O)ccc1O [Apocynin] | 0.915 | 0.816 |
| O=C1C(=O)N(Cc2ccc(Cl)c(Cl)c2)c2ccccc21 [Apoptosis Activator 2] | 0.952 | 0.969 |
| CNC(=O)c1ccccc1Sc1ccc2c(/C=C/c3ccccn3)n[nH]c2c1 [Axitinib] | 0.898 | 0.857 |
| Nc1ncn([C@@H]2O[C@H](CO)[C@@H](O)[C@H]2O)c(=O)n1 [Azacitidine] | 0.855 | 0.977 |
| Nc1nccc(Oc2ccc3c(C(=O)Nc4cccc(C(F)(F)F)c4)cccc3c2)n1 [BAW2881 (NVP-BAW2881)] | 0.885 | 0.961 |
| Cc1ccc(S(=O)(=O)/C=C/C#N)cc1 [BAY 11-7082] | 0.957 | 0.839 |
| Cc1cc(-c2nc(-c3ccc(OC(F)(F)F)cc3)no2)nn1Cc1ccnc(N2CCN(C3CC3)CC2)c1 [BAY 87-2243] | 0.574 | 0.794 |
